Laboratory results: patent US20170172909A1, “Method Of Counteracting The Impact Of Chronic Stress On Skin” (ELC MANAGEMENT LLC, priority 2015, published 2017)
Several values for one entry are separate records, joined by “and”; a condition that tells them apart may be missing. Equal entries are not always repeated.

Key:
[1] = tested on: skin explants from the abdominal tissue; test: General morphology of ex vivo skin explants, cortisol-induced premature senescence (Masson's trichrome); assay type: cell-based, human
Procedure: Thirty three skin explants from the abdominal tissue of a donor, of an average diameter of 10 mm (±1 mm) were prepared.
The formula with 0.1% cortisol was applied topically on days 2, 5, 6 and 7.
On day 0, the three explants from the batch BO were collected and cut in two parts. One half was fixed in buffered formalin, and the other half was frozen at −80° C. On day 9, three explants from all other batches were collected and processed in the same way.
Sections were then mounted on Superfrost® plus silanized glass slides. The microscopical observations were made using a Leica DMLB or Orthoplan microscope. Pictures were digitized with a numeric DP72 Olympus camera with CellD storing software.
The observation of the general morphology was realized after staining of paraffinized sections according to Masson's trichrome, Goldner variant.

p21 = p21 immunostaining of ex vivo skin explants; assay type: cell-based, human
Procedure: (§4) After fixation for 24 hours in buffered formalin, the samples were dehydrated and impregnated in paraffin using a Leica TP 1010 dehydration automat. The samples were then embedded using a Leica EG 1160 embedding station. 5-μm-thick sections were made using a Leica RM 2125 Minot-type microtome, and the sections were then mounted on Superfrost® histological glass slides.
(§5) The immunostaining was assessed by microscopical observation.
The evaluation of the p21 immunostained pictures was based on both the number of cells that were stained as well as the staining intensity in each cell.

progerin = test: Progerin immunostaining of ex vivo skin explants; assay type: cell-based, human
Procedure: as §4, §5
Progerin staining intensity was measured in a similar way as for p21.

elastin = test: Elastin release by HDFs (Elastin Elisa); assay type: cell-based, human; conditions: 2.5 mg/ml, 72 hours
Procedure: (§1) HDFs, at passage 4, were plated in 96 well plates. After the cells reached confluency they were placed under starvation conditions for 48 hours. Cells then were treated with test materials in cell medium for 72 hours after which the medium was collected for analysis of elastin (Elastin Elisa assay, SOP D.33). Cell viability also was measured using the MTT assay (SOP D.29). Statistical analysis was performed with an ANOVA+Fisher LSD post hoc test. A p value of less than 0.05 was considered significant.
(§2) The results are presented as pg/ml elastin corrected for viability. The percent increase in elastin release is calculated as:
(§3) % increase=[Amount Elastinactive/Amount Elastincontrol]×100−100

fibroblasts from eyelid = test: GlaSbox contractile forces on collagen lattices, with or without cortisol, eyelid fibroblasts; assay type: cell-based, human; conditions: cortisol 250 ng/ml
Excerpt: In this study, the GlaSbox® system was used to analyze the effect of cortisol, with and without test materials, on the contractile forces generated by fibroblasts populating collagen lattices. The GlaSbox® device differs from other collagen lattice systems in that it uses a fixed, non-floating collagen lattice where the diameter of the collagen lattice remains constant but electrodes measure the actual contractile forces exerted by the cells on the collagen lattice. Fibroblasts were obtained from eyelid and abdominal skin of Chinese female donors. The effect of Biobenefity and Albizia julibrissin on the contractile forces of fibroblasts originating from eyelid, with or without exposure to cortisol (250 ng/ml), were evaluated. Two fibroblast cell types, one originating from eyelid and the other one from abdominal skin tissue, were purchased from Tebu-Bio (Boechout, Belgium). These cell types were isolated from different donors, each being a person. The fibroblasts were embedded three-dimensionally in hydrated collagen gel lattices. […] The forces are expressed as arbitrary units. […] Data are expressed as mean±standard deviation. The measurement of contractile forces was analyzed by means of a variance analysis with two factors (group versus control and time). […]

[2] = tested on: fibroblasts from abdominal skin; test: GlaSbox contractile forces on collagen lattices, with or without cortisol, abdominal fibroblasts; assay type: cell-based, human; conditions: cortisol 250 ng/ml
Excerpt: In this study, the GlaSbox® system was used to analyze the effect of cortisol, with and without test materials, on the contractile forces generated by fibroblasts populating collagen lattices. The GlaSbox® device differs from other collagen lattice systems in that it uses a fixed, non-floating collagen lattice where the diameter of the collagen lattice remains constant but electrodes measure the actual contractile forces exerted by the cells on the collagen lattice.
Fibroblasts were obtained from eyelid and abdominal skin of Chinese female donors. The effect of Biobenefity and Albizia julibrissin on the contractile forces of fibroblasts originating from eyelid, with or without exposure to cortisol (250 ng/ml), were evaluated.
Two fibroblast cell types, one originating from eyelid and the other one from abdominal skin tissue, were purchased from Tebu-Bio (Boechout, Belgium). These cell types were isolated from different donors, each being a person. […] The forces are expressed as arbitrary units.
Each Glasbox® curve was fitted with GraphPad Prism® software to determine the area under the curve (AUC) and the maximum of contraction (Max). […] Data are expressed as mean±standard deviation. The measurement of contractile forces was analyzed by means of a variance analysis with two factors (group versus control and time). […]

[3] = tested on: Human dermal fibroblasts (HDFs); test: Free floating fibroblast-populated collagen lattice (FPCL) contraction; assay type: cell-based
Procedure: Human dermal fibroblasts (HDFs, passages 6-7) were maintained in Falcon 75 cm^2 tissue culture flasks in DMEM supplemented with 10% FBS. Cells were harvested from monolayer culture, and placed in 6-well culture plates (1×10^5 cells/well). Cells were pretreated with 25 μM hydrocortisone or with a combination of 25 μM hydrocortisone and different concentrations of test materials for 24 hours before being applied to free floating fibroblast populated collagen lattices.
Gels containing collagen HDFs were prepared as described by Tomasek, J. J., et al. (Fibroblast contraction occurs on release of tension in attached collagen lattices: dependency on an organized actin cytoskeleton and serum. Anat. Rec., 1992, March; 232(3):359-68), incorporated herein by reference in its entirety, with modifications as follows. Briefly, collagen solution (Corning, Rat tail, 354236), concentrated DMEM, 0.1N NaOH and FBS, were gently mixed at 4° C., giving a suspension at a final density of 5×10^5 cells and 3 mg/ml collagen. The collagen/cell suspension (2 ml total) was poured on 35 mm-uncoated dish and allowed to polymerize for 45 minutes at 37° C. Then lattices were released and gels were allowed to float in the medium. […]
Fibroblast contractility was assessed by measuring changes in the surface area of collagen I gels mediated by fibroblasts. […] Thereafter, lattice diameter was measured. […]

[4] = tested on: fibroblasts from an abdominoplasty; test: GlaSbox contractile forces of fibroblasts on collagen lattices (stimulation, Example 3); assay type: cell-based, human; conditions: 2.5 ng/ml, 24 hours
Excerpt: In this study, the GlaSbox® system was used to analyze the effect of cosmetic raw materials, TGFβ1, Taisoh Liquid B Jujube Extract (Ziziphus jujuba fruit), available from Ichimaru Pharcos, and Uplevity, available from Lipotec. TGFβ1, used in this study as a positive control, is known to play a role in cellular functions, including cell proliferation, differentiation, wound healing and matrix-related processes. Taisoh Liquid B Jujube Extract has been reported to stimulate wound healing. […]
Fibroblasts were embedded three-dimensionally in hydrated collagen gels composed of 6 volumes of 1.76× (DMEMc, NaHCO3, NaOH, antibiotics), 3 volumes rat tail type I collagen (2 mg/ml) and 1 volume of cellular suspension (8×10^5 cells/ml) using a modified version of the technique developed by Bell et al. (Production of a tissue-like structure by contraction of collagen lattices by human fibroblasts of different proliferative potential in vitro. Proc. Natl. Acad. Sci. USA 76, 1274-1278 (1979). The lattice mixture was poured into the rectangular culture plate of the GlaSbox® and polymerized in less than 30 minutes at 37° C. […] The forces were expressed as arbitrary units (AU) after 24 hours of measurement. […]

tropoelastin = test: Tropoelastin synthesis by HDFs; assay type: cell-based, human; conditions: 5 pg/ml
Procedure: as §1, §2, §3

fibrillin-1 = test: Fibrillin-1 release by HDFs (sandwich ELISA); assay type: cell-based, human; conditions: positive control, 100 ng/ml, 24 hours
Procedure: Fibrillins, glycoproteins secreted by fibroblasts, are essential for the formation of elastic fibers found in connective tissue. Test compounds Mitostime (extract of Laminaria digitata) and Milk Peptide Complex (MPC or whey protein, available from CLR, Germany) were evaluated for their capacity to stimulate the synthesis of fibrillin-1 in HDFs.
An aliquot of a selected fibroblast cell line (HDFs) was thawed, placed into culture, and allowed to establish good growth before passaging into a 24-well plate (5×10^4 cells/1 ml well). After overnight adhesion to the well, test compounds were added to the medium at three different concentrations and the cells were incubated for 24 hours. A positive control of 100 ng/ml TGFβ1, was included. The negative controls used were 0.1% BSA and 0.1% EtOH. After 24 hours, medium was harvested, centrifuged, and transferred to fibrillin-1 sandwich ELISA plates to determine the amount of fibrillin released.

[5] = day 9, with 0.1% cortisol, Biwa leaf, Biobenefity, Juvinity 0.5% w/v, IBR Dormin 0.1% w/v
[6] = 0.1% cortisol, day 9, versus untreated

## CC(C)=CCCC(C)=CCCC(C)=CCCC(C)=CCCC(C)O (stereo not shown) [Juvinity, Geranylgeranyl-2-propanol]
[1]; day 9, absence of cortisol, Biwa leaf, Biobenefity, Juvinity 0.5% w/v, IBR Dormin 0.1% w/v in medium
  General morphology of explants: altered morphology, with pycnotic nuclei and cellular spongiosis
[1]; day 9, with topical 0.1% cortisol, Biwa leaf, Biobenefity, Juvinity 0.5% w/v, IBR Dormin 0.1% w/v
  Effect on cortisol-induced morphology (epidermal thickness): did not have any beneficial effect
p21; [5]
  Effect on cortisol-induced increase in p21 staining intensity: partially reduce
progerin; [5]
  Effect on cortisol-induced increase in progerin staining intensity: did not show a beneficial effect

## O=C[C@H](O)[C@H](O)[C@H](O)CO [Riboxyl, D-ribose]
elastin
  Increase in elastin synthesis versus untreated cells: 66%

## C[C@]12CCC(=O)C=C1CC[C@@H]1[C@@H]2[C@@H](O)C[C@@]2(C)[C@H]1CC[C@]2(O)C(=O)CO [cortisol]
[1]; 0.1% cortisol topically during 7 days (day 2 to day 9)
  General morphology of explants: moderate epidermal atrophy
p21; [6]
  p21 staining intensity (semi-quantitative grading): from very weak to moderate
progerin; [6]
  Progerin staining intensity: increased from weak to moderate
Fibroblasts from eyelid
  Contractile forces (AUC and maximum contractile force): significant decrease
[2]
  Contractile forces (AUC and maximum contractile force): significant decrease
[3]; 25 μM, listed as hydrocortisone
  Decrease of lattice contraction versus untreated lattices: 11.8% and 9%
[3]; 50 μM
  Decrease of lattice contraction versus untreated lattices: 18%

## TGFβ1: Transforming Growth Factor β, secreted protein used as a positive control
[4]
  Increase of contractile forces (AUC): 25.5%
  Increase of maximum contraction: 26.0%
tropoelastin
  Increase in tropoelastin synthesis versus untreated cells: 175%
fibrillin-1
  Fibrillin release at baseline level: stimulate the fibrillin release
